Experimental data: PubChem BioAssay AID1963833 (Molecular Pharmacology Branch, DTP, NCI, 2024)
pIC50: −log10 of the molar value.

Test system: 883617-216-R-J1-PDC complex spheroid viability
Test: Anticancer human tumor 883617-216-R-J1-PDC patient-derived bladder carcinoma cell line growth inhibition [POLQ]
Details: for pIC50: curve of first compound; for viability, T/C: stronger effect = lower value
Description: Multicellular complex tumor spheroid response to Polymerase (POL) inhibitors (novobiocin, ART-558, RP6685) in combination with a variety of drugs and investigational agents in selected tumor cell lines
The POL inhibitors (novobiocin, ART-558, and RP6685) were evaluated both individually and in combination with standard of care and investigational anticancer small molecules within a complex spheroid model of solid tumors. . Complex spheroids include a stromal component modeled by human endothelial cells (HUVEC) and fibroblasts modeled by human mesenchymal stem cells (MSCs). The concentration ranges selected for each drug and investigational agent were based upon clinically achievable concentrations if the clinical Cmax of the agent was known.
Compounds. The drugs and investigational agents: novobiocin (NSC847541), ART-558 (NSC835418), RP-6685 (NSC848927), peposertib (NSC802822), ceralasertib (NSC780249), elimusertib (NSC800525), camonsertib (NSC841442), AZD-1390 (NSC803789), olaparib (NSC753686), talazoparib (NSC767125), rucaparib (NSC756644), sotorasib (NSC818433), MRTX-1133 (NSC836407), SN-38 (NSC673596), topotecan (NSC609699), epotoside (NSC141540), doxorubicin (NSC123127), gemcitabine (NSC613327), 5-fluorouracil (NSC19893), paclitaxel (NSC125973), vemurafenib (NSC761431), MSA-2 (NSC828583), SN-011 (NSC837082), adavosertib (NSC754352), prexasertib (NSC758257), carboplatin (NSC241240) and oxaliplatin (NSC266046), were obtained from the National Cancer Institute (NCI) Developmental Therapeutics Program Chemical Repository (21). The FDA-approved anticancer drug set is available from the Developmental Therapeutics Program at https://dtp.cancer.gov/organization/dscb/obtaining/. […] The stock solutions were prepared in dimethyl sulfoxide (DMSO, Sigma-Aldrich, St. Louis, MO, cat. D2650), except for the platinum compounds which were prepared in saline (Quality Biological, Gaithersburg, MD, cat. 114-055-101), at 800-fold the tested concentration and stored at -70 degrees C prior to their use. All drugs and investigational agents were tested over a range starting from a high concentration at or near the clinical Cmax and decreasing in half-log increments. If the clinical Cmax for an agent had not been determined, the highest concentration tested was 10 microM, except for SN-38, which was tested at a high concentration of 1 microM.
Cell Culture. All cells were maintained in an incubator at 37 degrees C and 5% CO2 with 95% humidity. The PDC lines were cultured according to standard operating procedures established by the NCI PDMR (https://pdmr.cancer.gov). Table 3 of the manuscript, lists the cell lines along with the number of the three cell types plated to form the mct-spheroids and media for tumor cell growth. After thawing, all PDC lines, except 997537-175-T-J1-PDC and 415267-285-R-J2-PDC, were cultured in Matrigel-coated flasks prepared with a working solution of 1X Ham's F-12 nutrient mix, without supplementation (Thermo Fisher Scientific, cat. 11765054), 100 U/mL penicillin-streptomycin (Thermo Fisher Scientific, cat. 15140122), and 2.5% Matrigel (Corning Inc., Corning, NY, cat. 354248) for the first three passages. The two PDC lines 997537-175-T-J1-PDC and 415267-285-R-J2-PDC were cultured on uncoated flasks. The 857933-349-R-J2-PDC line was cultured in 6C/Colon 1B media containing advanced DMEM/F-12 (Thermo Fisher Scientific, cat. 12634028), 10 mM HEPES (Thermo Fisher Scientific, cat. 15630080), 1X GlutaMAX supplement (Thermo Fisher Scientific, cat. 35050061), 0.1 mg/mL primocin (InvivoGen, San Diego, CA, cat. ant-pm-2), 10% defined fetal bovine serum, heat inactivated (HyClone Laboratories Inc., Logan, UT, cat. SH30070.03HI), 50% L-WRN conditioned media (ATCC, cat. CRL-3276), 1.25 mM N-Acetyl-L-cysteine (Sigma-Aldrich, cat. A9165), 10 mM nicotinamide (Sigma-Aldrich, cat. N0636), 1X B-27 supplement (Thermo Fisher Scientific, cat. 17504044), 1X N-2 supplement (Thermo Fisher Scientific, cat. […]

[1] = second compound 0.0316 µM, first compound 0.0316 µM
[2] = second compound 0.0316 µM, first compound 0.1 µM
[3] = second compound 0.0316 µM, first compound 0.316 µM
[4] = second compound 0.0316 µM, first compound 1 µM
[5] = second compound 0.0316 µM, first compound 3.16 µM
[6] = second compound 0.0316 µM, first compound 10 µM
[7] = second compound 0.1 µM, first compound 0.0316 µM
[8] = second compound 0.1 µM, first compound 0.1 µM
[9] = second compound 0.1 µM, first compound 0.316 µM
[10] = second compound 0.1 µM, first compound 1 µM
[11] = second compound 0.1 µM, first compound 3.16 µM
[12] = second compound 0.1 µM, first compound 10 µM
[13] = second compound 0.316 µM, first compound 0.0316 µM
[14] = second compound 0.316 µM, first compound 0.1 µM
[15] = second compound 0.316 µM, first compound 0.316 µM
[16] = second compound 0.316 µM, first compound 1 µM
[17] = second compound 0.316 µM, first compound 3.16 µM
[18] = second compound 0.316 µM, first compound 10 µM
[19] = second compound 1 µM, first compound 0.0316 µM
[20] = second compound 1 µM, first compound 0.1 µM
[21] = second compound 1 µM, first compound 0.316 µM
[22] = second compound 1 µM, first compound 1 µM
[23] = second compound 1 µM, first compound 3.16 µM
[24] = second compound 1 µM, first compound 10 µM
[25] = second compound 3.16 µM, first compound 0.0316 µM
[26] = second compound 3.16 µM, first compound 0.1 µM
[27] = second compound 3.16 µM, first compound 0.316 µM
[28] = second compound 3.16 µM, first compound 1 µM
[29] = second compound 3.16 µM, first compound 3.16 µM
[30] = second compound 3.16 µM, first compound 10 µM
[31] = second compound 10 µM, first compound 0.0316 µM
[32] = second compound 10 µM, first compound 0.1 µM
[33] = second compound 10 µM, first compound 0.316 µM
[34] = second compound 10 µM, first compound 1 µM
[35] = second compound 10 µM, first compound 3.16 µM
[36] = second compound 10 µM, first compound 10 µM
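Also: spheroids exposed to compounds for seven days before readout.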
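For viability, T/C in this document: 100% = DMSO vehicle control viability.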

SMILES: C#Cc1c(F)ccc2cc(O)cc(-c3ncc4c(N5CC6CCC(C5)N6)nc(OCC56CCCN5CC(F)C6)nc4c3F)c12 (stereo unspecified) + Cc1cccc(N(C)C(=O)C2C(O)CCN2c2nc(C)cc(C(F)(F)F)c2C#N)c1
- pIC50 (second compound 0.0316 µM): < 5.00
- pIC50 (second compound 0.1 µM): < 5.00
- pIC50 (second compound 0.316 µM): < 5.00
- pIC50 (second compound 1 µM): < 5.00
- pIC50 (second compound 3.16 µM): < 5.00
- pIC50 (second compound 10 µM): < 5.00
- viability, T/C [1]: 98.1%
- viability, T/C [2]: 109%
- viability, T/C [3]: 97.7%
- viability, T/C [4]: 95.1%
- viability, T/C [5]: 86.8%
- viability, T/C [6]: 70.1%
- viability, T/C [7]: 98%
- viability, T/C [8]: 104%
- viability, T/C [9]: 109%
- viability, T/C [10]: 89.8%
- viability, T/C [11]: 86.2%
- viability, T/C [12]: 81.4%
- viability, T/C [13]: 108%
- viability, T/C [14]: 101%
- viability, T/C [15]: 110%
- viability, T/C [16]: 100%
- viability, T/C [17]: 80.6%
- viability, T/C [18]: 77.6%
- viability, T/C [19]: 104%
- viability, T/C [20]: 99%
- viability, T/C [21]: 106%
- viability, T/C [22]: 89.9%
- viability, T/C [23]: 86.5%
- viability, T/C [24]: 72.2%
- viability, T/C [25]: 103%
- viability, T/C [26]: 101%
- viability, T/C [27]: 97.8%
- viability, T/C [28]: 94.5%
- viability, T/C [29]: 81.5%
- viability, T/C [30]: 78%
- viability, T/C [31]: 115%
- viability, T/C [32]: 102%
- viability, T/C [33]: 104%
- viability, T/C [34]: 106%
- viability, T/C [35]: 87.7%
- viability, T/C [36]: 76.2%

SMILES: CC1COCCN1c1cc(C2(S(C)(=N)=O)CC2)nc(-c2ccnc3[nH]ccc23)n1 (stereo unspecified) + Cc1cccc(N(C)C(=O)C2C(O)CCN2c2nc(C)cc(C(F)(F)F)c2C#N)c1
- pIC50 (second compound 0.0316 µM): 5.48
- pIC50 (second compound 0.1 µM): 5.54
- pIC50 (second compound 0.316 µM): 5.56
- pIC50 (second compound 1 µM): 5.56
- pIC50 (second compound 3.16 µM): 5.54
- pIC50 (second compound 10 µM): 5.22
- viability, T/C [1]: 97.7%
- viability, T/C [2]: 91.2%
- viability, T/C [3]: 92.8%
- viability, T/C [4]: 77.5%
- viability, T/C [5]: 50.9%
- viability, T/C [6]: 30.8%
- viability, T/C [7]: 102%
- viability, T/C [8]: 89.9%
- viability, T/C [9]: 87.7%
- viability, T/C [10]: 65.2%
- viability, T/C [11]: 48.6%
- viability, T/C [12]: 36.1%
- viability, T/C [13]: 88.2%
- viability, T/C [14]: 96.4%
- viability, T/C [15]: 94.7%
- viability, T/C [16]: 77.8%
- viability, T/C [17]: 46.6%
- viability, T/C [18]: 38.6%
- viability, T/C [19]: 108%
- viability, T/C [20]: 93.5%
- viability, T/C [21]: 84.3%
- viability, T/C [22]: 68.4%
- viability, T/C [23]: 43.9%
- viability, T/C [24]: 37.2%
- viability, T/C [25]: 105%
- viability, T/C [26]: 94.1%
- viability, T/C [27]: 93.1%
- viability, T/C [28]: 65.8%
- viability, T/C [29]: 50%
- viability, T/C [30]: 38%
- viability, T/C [31]: 119%
- viability, T/C [32]: 91.4%
- viability, T/C [33]: 112%
- viability, T/C [34]: 74.4%
- viability, T/C [35]: 67.6%
- viability, T/C [36]: 37.8%

SMILES: O=C(c1cc(Cc2n[nH]c(=O)c3ccccc23)ccc1F)N1CCN(C(=O)C2CC2)CC1 + Cc1cccc(N(C)C(=O)C2C(O)CCN2c2nc(C)cc(C(F)(F)F)c2C#N)c1
- pIC50 (second compound 0.0316 µM): < 5.00
- pIC50 (second compound 0.1 µM): < 5.00
- pIC50 (second compound 0.316 µM): < 5.00
- pIC50 (second compound 1 µM): < 5.00
- pIC50 (second compound 3.16 µM): < 5.00
- pIC50 (second compound 10 µM): < 5.00
- viability, T/C [1]: 111%
- viability, T/C [2]: 89.4%
- viability, T/C [3]: 82.2%
- viability, T/C [4]: 94.9%
- viability, T/C [5]: 79.3%
- viability, T/C [6]: 64.6%
- viability, T/C [7]: 111%
- viability, T/C [8]: 94%
- viability, T/C [9]: 91%
- viability, T/C [10]: 90.2%
- viability, T/C [11]: 80.3%
- viability, T/C [12]: 66.7%
- viability, T/C [13]: 112%
- viability, T/C [14]: 90.3%
- viability, T/C [15]: 89.8%
- viability, T/C [16]: 93.1%
- viability, T/C [17]: 82.6%
- viability, T/C [18]: 70.4%
- viability, T/C [19]: 98.7%
- viability, T/C [20]: 94.1%
- viability, T/C [21]: 90.9%
- viability, T/C [22]: 90.5%
- viability, T/C [23]: 92%
- viability, T/C [24]: 66.4%
- viability, T/C [25]: 93.3%
- viability, T/C [26]: 94.6%
- viability, T/C [27]: 90.5%
- viability, T/C [28]: 78.3%
- viability, T/C [29]: 87.3%
- viability, T/C [30]: 71.6%
- viability, T/C [31]: 114%
- viability, T/C [32]: 107%
- viability, T/C [33]: 120%
- viability, T/C [34]: 99.9%
- viability, T/C [35]: 95%
- viability, T/C [36]: 77.5%
